Data: ChEMBL document CHEMBL1201862, “PubChem BioAssay data set” (2004)
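Assay format: 96-well plates, 48-hour exposure. At the GI50, growth is halved.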 The source made the active and inactive calls. No stated cut-off is given here; in the data, active = GI50 up to about 1.1 µM and inactive = higher.

Columns and labels:
Assay in all cases: NCI tumour cell line growth inhibition, 48 h
KM12 = tested on: KM12
SK-MEL-2 = tested on: SK-MEL-2
RPMI-8226 = tested on: RPMI-8226
A498 = tested on: A498
RXF 393 = tested on: RXF 393
HOP-62 = tested on: HOP-62
DU-145 = tested on: DU-145
786-0 = tested on: 786-0
BT-549 = tested on: BT-549
CAKI-1 = tested on: CAKI-1
MDA-MB-231 = tested on: MDA-MB-231
Hs-578T = tested on: Hs-578T
OVCAR-4 = tested on: OVCAR-4
SK-MEL-28 = tested on: SK-MEL-28
SF-268 = tested on: SF-268
OVCAR-8 = tested on: OVCAR-8
HCC 2998 = tested on: HCC 2998
TK-10 = tested on: TK-10
T47D = tested on: T47D
M14 = tested on: M14
OVCAR-3 = tested on: OVCAR-3
SN12C = tested on: SN12C
HT-29 = tested on: HT-29
NCI/ADR-RES = tested on: NCI/ADR-RES
SK-OV-3 = tested on: SK-OV-3
IGROV-1 = tested on: IGROV-1
SK-MEL-5 = tested on: SK-MEL-5
UACC-62 = tested on: UACC-62
ACHN = tested on: ACHN
UO-31 = tested on: UO-31
LOX IMVI = tested on: LOX IMVI
UACC-257 = tested on: UACC-257
OVCAR-5 = tested on: OVCAR-5
SNB-75 = tested on: SNB-75
HCT-15 = tested on: HCT-15
HCT-116 = tested on: HCT-116
U-251 = tested on: U-251
NCI-H226 = tested on: NCI-H226
COLO 205 = tested on: COLO 205
HOP-92 = tested on: HOP-92
MDA-MB-435 = tested on: MDA-MB-435
Malme-3M = tested on: Malme-3M
PC-3 = tested on: PC-3
SNB-19 = tested on: SNB-19
SF-295 = tested on: SF-295
A549 = tested on: A549
CCRF-CEM = tested on: CCRF-CEM
NCI-H23 = tested on: NCI-H23
NCI-H460 = tested on: NCI-H460
SF-539 = tested on: SF-539
K562 = tested on: K562
MCF7 = tested on: MCF7
MOLT-4 = tested on: MOLT-4
EKVX = tested on: EKVX
NCI-H522 = tested on: NCI-H522
SW-620 = tested on: SW-620
SR = tested on: SR
HL-60 = tested on: HL-60
MDA-N = tested on: MDA-N

CCOC(=O)c1sc2nc(SC)nc3c2c1NCN3C1CC1
GI50 (KM12): > 100 µM (inactive)
GI50 (SK-MEL-2): > 100 µM (inactive)
GI50 (RPMI-8226): > 100 µM (inactive)
GI50 (A498): > 100 µM (inactive)
GI50 (RXF 393): > 100 µM (inactive)
GI50 (HOP-62): > 100 µM (inactive)
GI50 (DU-145): > 100 µM (inactive)
GI50 (786-0): 48.2 µM (inactive)
GI50 (BT-549): > 100 µM (inactive)
GI50 (CAKI-1): > 100 µM (inactive)
GI50 (MDA-MB-231): > 100 µM (inactive)
GI50 (Hs-578T): 74.5 µM (inactive)
GI50 (OVCAR-4): > 100 µM (inactive)
GI50 (SK-MEL-28): > 100 µM (inactive)
GI50 (SF-268): > 100 µM (inactive)
GI50 (OVCAR-8): 36.6 µM (inactive)
GI50 (HCC 2998): > 100 µM (inactive)
GI50 (TK-10): > 100 µM (inactive)
GI50 (T47D): 48.6 µM (inactive)
GI50 (M14): > 100 µM (inactive)
GI50 (OVCAR-3): > 100 µM (inactive)
GI50 (SN12C): > 100 µM (inactive)
GI50 (HT-29): > 100 µM (inactive)
GI50 (NCI/ADR-RES): > 100 µM (inactive)
GI50 (SK-OV-3): > 100 µM (inactive)
GI50 (IGROV-1): > 100 µM (inactive)
GI50 (SK-MEL-5): > 100 µM (inactive)
GI50 (UACC-62): > 100 µM (inactive)
GI50 (ACHN): > 100 µM (inactive)
GI50 (UO-31): > 100 µM (inactive)
GI50 (LOX IMVI): > 100 µM (inactive)
GI50 (UACC-257): > 100 µM (inactive)
GI50 (OVCAR-5): > 100 µM (inactive)
GI50 (SNB-75): 38.8 µM (inactive)
GI50 (HCT-15): > 100 µM
GI50 (HCT-116): > 100 µM (inactive)
GI50 (U-251): > 100 µM (inactive)
GI50 (NCI-H226): > 100 µM (inactive)
GI50 (COLO 205): > 100 µM (inactive)
GI50 (HOP-92): > 100 µM (inactive)
GI50 (MDA-MB-435): > 100 µM (inactive)
GI50 (Malme-3M): > 100 µM (inactive)
GI50 (PC-3): > 100 µM (inactive)
GI50 (SNB-19): > 100 µM (inactive)
GI50 (SF-295): > 100 µM (inactive)
GI50 (A549): > 100 µM (inactive)
GI50 (CCRF-CEM): > 100 µM (inactive)
GI50 (NCI-H23): > 100 µM (inactive)
GI50 (NCI-H460): > 100 µM (inactive)

O=C(c1ccc(Cl)cc1)C(O)c1ccc(Cl)cc1 (configuration not stated)
GI50 (SF-539): 65.5 µM (inactive)
GI50 (KM12): 41.6 µM (inactive)
GI50 (SK-MEL-2): > 100 µM (inactive)
GI50 (RPMI-8226): 60.4 µM (inactive)
GI50 (K562): 30.8 µM (inactive)
GI50 (RXF 393): > 100 µM (inactive)
GI50 (HOP-62): > 100 µM (inactive)
GI50 (DU-145): 92 µM (inactive)
GI50 (786-0): > 100 µM (inactive)
GI50 (BT-549): 53.8 µM (inactive)
GI50 (MCF7): 75.7 µM (inactive)
GI50 (CAKI-1): > 100 µM (inactive)
GI50 (MDA-MB-231): > 100 µM (inactive)
GI50 (Hs-578T): 45.3 µM (inactive)
GI50 (OVCAR-4): 86.3 µM (inactive)
GI50 (SK-MEL-28): > 100 µM (inactive)
GI50 (MOLT-4): 24.8 µM (inactive)
GI50 (SF-268): > 100 µM (inactive)
GI50 (OVCAR-8): 63.2 µM (inactive)
GI50 (HCC 2998): > 100 µM (inactive)
GI50 (TK-10): 63.4 µM (inactive)
GI50 (M14): > 100 µM (inactive)
GI50 (OVCAR-3): 43.8 µM (inactive)
GI50 (SN12C): > 100 µM (inactive)
GI50 (HT-29): > 100 µM (inactive)
GI50 (NCI/ADR-RES): > 100 µM (inactive)
GI50 (EKVX): 34.2 µM (inactive)
GI50 (IGROV-1): 85.3 µM (inactive)
GI50 (SK-MEL-5): 30.9 µM (inactive)
GI50 (UACC-62): 42 µM (inactive)
GI50 (ACHN): > 100 µM (inactive)
GI50 (UO-31): > 100 µM (inactive)
GI50 (LOX IMVI): > 100 µM (inactive)
GI50 (UACC-257): 52.8 µM (inactive)
GI50 (OVCAR-5): > 100 µM (inactive)
GI50 (SNB-75): > 100 µM (inactive)
GI50 (HCT-15): > 100 µM
GI50 (HCT-116): > 100 µM (inactive)
GI50 (U-251): > 100 µM (inactive)
GI50 (NCI-H226): > 100 µM (inactive)
GI50 (NCI-H522): 42 µM (inactive)
GI50 (COLO 205): > 100 µM (inactive)
GI50 (SW-620): > 100 µM (inactive)
GI50 (HOP-92): 30.8 µM (inactive)
GI50 (MDA-MB-435): > 100 µM (inactive)
GI50 (Malme-3M): 40.3 µM (inactive)
GI50 (SR): 25.4 µM (inactive)
GI50 (PC-3): 46.6 µM (inactive)
GI50 (SNB-19): > 100 µM (inactive)
GI50 (SF-295): > 100 µM (inactive)
GI50 (HL-60): 32.5 µM (inactive)
GI50 (A549): 59.7 µM (inactive)
GI50 (CCRF-CEM): > 100 µM (inactive)
GI50 (NCI-H23): 70.3 µM (inactive)
GI50 (NCI-H460): > 100 µM (inactive)

COC(=O)CCc1ccc(CCC(=O)OC)cc1
GI50 (SF-539): > 100 µM (inactive)
GI50 (SK-MEL-2): > 100 µM (inactive)
GI50 (RPMI-8226): > 100 µM (inactive)
GI50 (K562): > 100 µM (inactive)
GI50 (A498): > 100 µM (inactive)
GI50 (RXF 393): > 100 µM (inactive)
GI50 (HOP-62): > 100 µM (inactive)
GI50 (DU-145): > 100 µM (inactive)
GI50 (786-0): > 100 µM (inactive)
GI50 (MCF7): > 100 µM (inactive)
GI50 (CAKI-1): > 100 µM (inactive)
GI50 (MDA-MB-231): > 100 µM (inactive)
GI50 (Hs-578T): > 100 µM (inactive)
GI50 (OVCAR-4): > 100 µM (inactive)
GI50 (SK-MEL-28): > 100 µM (inactive)
GI50 (MOLT-4): > 100 µM (inactive)
GI50 (SF-268): > 100 µM (inactive)
GI50 (OVCAR-8): > 100 µM (inactive)
GI50 (HCC 2998): > 100 µM (inactive)
GI50 (TK-10): > 100 µM (inactive)
GI50 (T47D): > 100 µM (inactive)
GI50 (M14): > 100 µM (inactive)
GI50 (OVCAR-3): > 100 µM (inactive)
GI50 (MDA-N): > 100 µM (inactive)
GI50 (HT-29): > 100 µM (inactive)
GI50 (NCI/ADR-RES): > 100 µM (inactive)
GI50 (SK-OV-3): > 100 µM (inactive)
GI50 (EKVX): > 100 µM (inactive)
GI50 (IGROV-1): > 100 µM (inactive)
GI50 (SK-MEL-5): > 100 µM (inactive)
GI50 (ACHN): > 100 µM (inactive)
GI50 (UO-31): > 100 µM (inactive)
GI50 (LOX IMVI): > 100 µM (inactive)
GI50 (UACC-257): > 100 µM (inactive)
GI50 (OVCAR-5): > 100 µM (inactive)
GI50 (SNB-75): > 100 µM (inactive)
GI50 (HCT-15): > 100 µM
GI50 (HCT-116): > 100 µM (inactive)
GI50 (U-251): > 100 µM (inactive)
GI50 (NCI-H522): > 100 µM (inactive)
GI50 (SW-620): > 100 µM (inactive)
GI50 (HOP-92): > 100 µM (inactive)
GI50 (MDA-MB-435): > 100 µM (inactive)
GI50 (Malme-3M): > 100 µM (inactive)
GI50 (SR): > 100 µM (inactive)
GI50 (PC-3): > 100 µM (inactive)
GI50 (SNB-19): > 100 µM (inactive)
GI50 (SF-295): > 100 µM (inactive)
GI50 (HL-60): > 100 µM (inactive)
GI50 (A549): > 100 µM (inactive)
GI50 (CCRF-CEM): > 100 µM (inactive)
GI50 (NCI-H23): > 100 µM (inactive)
GI50 (NCI-H460): > 100 µM (inactive)
